Values joined by “and” are separate entries in the source; they are usually repeats but may differ in a detail not shown here. Identical values can stand only once. Inconclusive results and toxic doses are left out.
Test system: CD2F1 mice, L1210 leukemia ip, survival T/C
Assay: NCI In Vivo Anticancer Drug Screen. Data for tumor model L1210 Leukemia (intraperitoneal) in CD2F1 (CDF1) mice
Details: endpoint: mean survival time, higher = longer survival
Procedure, shortened: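 Compound-dosed mice with transplantable tumor versus matched vehicle controls; endpoint ratio T/C reported.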

[1] = dose: 100.0 mg/kg/injection, schedule: Q04DX002 (ip), vehicle: saline with Tween-80
[2] = dose: 200.0 mg/kg/injection, schedule: Q04DX002 (ip), vehicle: saline with Tween-80
[3] = dose: 100.0 mg/kg/injection, schedule: Q04DX003 (ip), vehicle: saline with Tween-80
[4] = dose: 100.0 mg/kg/injection, schedule: Q04DX003 (ip), vehicle: saline
[5] = dose: 50.0 mg/kg/injection, schedule: Q01DX009 (ip), vehicle: saline with Tween-80
[6] = dose: 100.0 mg/kg/injection, schedule: Q01DX009 (ip), vehicle: saline with Tween-80
[7] = dose: 200.0 mg/kg/injection, schedule: Q01DX009 (ip), vehicle: saline with Tween-80
[8] = dose: 25.0 mg/kg/injection, schedule: Q01DX009 (ip), vehicle: saline with Tween-80
[9] = dose: 200.0 mg/kg/injection, schedule: Q04DX003 (ip), vehicle: saline with Tween-80
[10] = dose: 400.0 mg/kg/injection, schedule: Q01DX009 (ip), vehicle: saline with Tween-80
[11] = dose: 400.0 mg/kg/injection, schedule: Q04DX003 (ip), vehicle: saline with Tween-80
[12] = dose: 100.0 mg/kg/injection, schedule: Q01DX001 (ip), vehicle: saline
[13] = dose: 200.0 mg/kg/injection, schedule: Q01DX001 (ip), vehicle: saline
[14] = dose: 400.0 mg/kg/injection, schedule: Q01DX001 (ip), vehicle: saline

O=C(Nc1ccc(C2=NCCN2)cc1)c1ccc(C(=O)Nc2ccc(C3=NCCN3)cc2)c([N+](=O)[O-])c1
T/C (dose: 5.0 mg/kg/injection, schedule: Q01DX007 (ip), vehicle: saline): 124 % of control
T/C (dose: 5.0 mg/kg/injection, schedule: Q03DX003 (ip), vehicle: saline): 107 % of control
T/C (dose: 5.0 mg/kg/injection, schedule: Q04DX003 (ip), vehicle: saline): 112 % of control
T/C (dose: 8.0 mg/kg/injection, schedule: Q01DX009 (ip), vehicle: saline): 158 % of control
T/C (dose: 10.0 mg/kg/injection, schedule: Q01DX007 (ip), vehicle: saline): 155 % of control
T/C (dose: 10.0 mg/kg/injection, schedule: Q01DX009 (ip), vehicle: saline): 163 % of control
T/C (dose: 10.0 mg/kg/injection, schedule: Q03DX003 (ip), vehicle: saline): 113 % of control
T/C (dose: 10.0 mg/kg/injection, schedule: Q04DX003 (ip), vehicle: saline): 112 % of control
T/C (dose: 16.0 mg/kg/injection, schedule: Q01DX009 (ip), vehicle: saline): 271 % of control
T/C (dose: 20.0 mg/kg/injection, schedule: Q01DX007 (ip), vehicle: saline): 181 % of control
T/C (dose: 20.0 mg/kg/injection, schedule: Q01DX009 (ip), vehicle: saline): 225 % of control
T/C (dose: 20.0 mg/kg/injection, schedule: Q04DX003 (ip), vehicle: saline): 115 % of control

CCN(N=O)C(=O)Nc1ccc(C2CC(=O)N(C)C2=O)cc1 (stereo not drawn)
T/C (dose: 12.5 mg/kg/injection, schedule: Q01DX001 (ip), vehicle: distilled water + Tween-80): 99 % of control
T/C (dose: 25.0 mg/kg/injection, schedule: Q01DX001 (ip), vehicle: distilled water + Tween-80): 111 % of control
T/C (dose: 50.0 mg/kg/injection, schedule: Q01DX001 (ip), vehicle: distilled water + Tween-80): 94 % of control and 98 % of control and 108 % of control
T/C (dose: 100.0 mg/kg/injection, schedule: Q01DX001 (ip), vehicle: distilled water + Tween-80): 122 % of control and 94 % of control and 96 % of control
T/C (dose: 200.0 mg/kg/injection, schedule: Q01DX001 (ip), vehicle: distilled water + Tween-80): 99 % of control and 101 % of control

CC1=C(CCC#N)C(=O)C(CCC#N)C(C)(C)C1 (stereo not drawn)
T/C [1]: 94 % of control
T/C [2]: 89 % of control

C=C(Br)CNC(=O)C(=O)OCC
T/C [3]: 105 % of control

CCOC(=O)C(CC)CO (stereo not drawn)
T/C [4]: 105 % of control
T/C (dose: 200.0 mg/kg/injection, schedule: Q04DX003 (ip), vehicle: saline): 103 % of control
T/C (dose: 400.0 mg/kg/injection, schedule: Q04DX003 (ip), vehicle: saline): 103 % of control

CCCOP(=O)(N1CC1(C)C)N1CC1(C)C (stereo not drawn)
T/C (dose: 6.3 mg/kg/injection, schedule: Q04DX003 (ip), vehicle: saline): 101 % of control
T/C (dose: 12.5 mg/kg/injection, schedule: Q04DX003 (ip), vehicle: saline): 101 % of control
T/C (dose: 25.0 mg/kg/injection, schedule: Q01DX009 (ip), vehicle: saline): 119 % of control
T/C (dose: 25.0 mg/kg/injection, schedule: Q04DX003 (ip), vehicle: saline): 124 % of control
T/C (dose: 50.0 mg/kg/injection, schedule: Q01DX009 (ip), vehicle: saline): 188 % of control
T/C (dose: 100.0 mg/kg/injection, schedule: Q01DX009 (ip), vehicle: saline): 156 % of control and 186 % of control
T/C [4]: 124 % of control

C1CC[N-]CC1.Oc1ccccc1C=NCCN=Cc1ccccc1O.[Co]
T/C (dose: 1.56 mg/kg/injection, schedule: Q04DX002 (ip), vehicle: saline with Tween-80): 109 % of control
T/C (dose: 3.13 mg/kg/injection, schedule: Q04DX002 (ip), vehicle: saline with Tween-80): 98 % of control

C=CCN(CC=C)C(=O)Nc1ccc(C)c(C)c1
T/C [5]: 96 % of control
T/C [6]: 92 % of control
T/C [7]: 96 % of control

Cc1c(N)ccc(O)c1C
T/C (dose: 12.5 mg/kg/injection, schedule: Q01DX009 (ip), vehicle: saline with Tween-80): 98 % of control
T/C [8]: 97 % of control
T/C [5]: 92 % of control

O=C(OCc1ccccc1)C1CC1
T/C (dose: 25.0 mg/kg/injection, schedule: Q01DX005 (ip), vehicle: saline with Tween-80): 89 % of control
T/C [8]: 96 % of control
T/C (dose: 50.0 mg/kg/injection, schedule: Q01DX005 (ip), vehicle: saline with Tween-80): 97 % of control
T/C [5]: 104 % of control
T/C (dose: 50.0 mg/kg/injection, schedule: Q04DX002 (ip), vehicle: saline with Tween-80): 97 % of control
T/C (dose: 100.0 mg/kg/injection, schedule: Q01DX005 (ip), vehicle: saline with Tween-80): 93 % of control
T/C [6]: 100 % of control
T/C [1]: 102 % of control
T/C (dose: 200.0 mg/kg/injection, schedule: Q01DX005 (ip), vehicle: saline with Tween-80): 93 % of control
T/C [7]: 93 % of control
T/C [2]: 102 % of control

Cc1ccc(S(=O)(=O)N(C)N=O)cc1
T/C [6]: 89 % of control
T/C [3]: 97 % of control
T/C [7]: 106 % of control
T/C [9]: 102 % of control
T/C [10]: 102 % of control
T/C [11]: 107 % of control

CCOC(=O)c1ncsc1NC(=O)NC
T/C (dose: 75.0 mg/kg/injection, schedule: Q01DX001 (ip), vehicle: saline): 101 % of control
T/C (dose: 150.0 mg/kg/injection, schedule: Q01DX001 (ip), vehicle: saline): 100 % of control

CC(=O)N1CCc2cc(N)ccc21
T/C [3]: 93 % of control
T/C [9]: 95 % of control
T/C [11]: 97 % of control

CC1c2ccccc2C=CN1C (stereo not drawn)
T/C (dose: 100.0 mg/kg/injection, schedule: Q04DX003 (ip), vehicle: saline sonified): 95 % of control
T/C (dose: 200.0 mg/kg/injection, schedule: Q04DX003 (ip), vehicle: saline sonified): 106 % of control
T/C (dose: 400.0 mg/kg/injection, schedule: Q04DX003 (ip), vehicle: saline sonified): 105 % of control

CN(Cc1ccc2nc(N)[nH]c(=O)c2n1)c1ccc(C(=O)NC(CCC(=O)O)C(=O)O)cc1 (stereo not drawn)
T/C (dose: 0.5 mg/kg/injection, schedule: Q01DX005 (ip), vehicle: sodium bicarbonate): 98 % of control and 101 % of control
T/C (dose: 1.0 mg/kg/injection, schedule: Q01DX005 (ip), vehicle: sodium bicarbonate): 101 % of control and 104 % of control
T/C (dose: 2.0 mg/kg/injection, schedule: Q01DX005 (ip), vehicle: sodium bicarbonate): 101 % of control and 102 % of control
T/C (dose: 4.0 mg/kg/injection, schedule: Q01DX005 (ip), vehicle: sodium bicarbonate): 98 % of control and 102 % of control
T/C (dose: 8.0 mg/kg/injection, schedule: Q01DX005 (ip), vehicle: sodium bicarbonate): 104 % of control and 107 % of control
T/C (dose: 16.0 mg/kg/injection, schedule: Q01DX005 (ip), vehicle: sodium bicarbonate): 102 % of control and 107 % of control

CO[C@@]12[C@@H]3N[C@@H]3CN1C1=C(C(=O)C(NCc3ccco3)=C(C)C1=O)[C@@H]2COC(N)=O
T/C (dose: 1.5 mg/kg/injection, schedule: Q01DX001 (ip), vehicle: distilled water + Tween-80): 113 % of control
T/C (dose: 3.0 mg/kg/injection, schedule: Q01DX001 (ip), vehicle: distilled water + Tween-80): 120 % of control
T/C (dose: 24.0 mg/kg/injection, schedule: Q01DX001 (ip), vehicle: distilled water + Tween-80): 156 % of control
T/C (dose: 36.0 mg/kg/injection, schedule: Q01DX001 (ip), vehicle: distilled water + Tween-80): 108 % of control

CC(Br)C(=O)c1ccc(OC(=O)c2ccccc2)cc1 (stereo not drawn)
T/C [12]: 100 % of control
T/C [13]: 100 % of control
T/C [14]: 100 % of control

F[Si](c1ccccc1)(c1cccc2ccccc12)c1cccc2ccccc12
T/C [6]: 96 % of control
T/C [7]: 100 % of control
T/C [10]: 95 % of control

N=c1ccn2c(n1)OC1C(OC(=O)C34CC5CC(CC(C5)C3)C4)C(COC(=O)C34CC5CC(CC(C5)C3)C4)OC12 (stereo not drawn)
T/C (dose: 12.5 mg/kg/injection, schedule: Q01DX005 (ip), vehicle: distilled water + Tween-80): 104 % of control
T/C (dose: 25.0 mg/kg/injection, schedule: Q01DX005 (ip), vehicle: distilled water + Tween-80): 107 % of control
T/C (dose: 50.0 mg/kg/injection, schedule: Q01DX005 (ip), vehicle: distilled water + Tween-80): 121 % of control

COC1(O)C(=O)c2ccccc2OC1(OC)c1ccc(C)cc1 (stereo not drawn)
T/C (dose: 50.0 mg/kg/injection, schedule: Q01DX001 (ip), vehicle: saline): 102 % of control
T/C [12]: 98 % of control
T/C [13]: 96 % of control
T/C [14]: 98 % of control

CC(C)(C)N[P+](Cc1ccc(C[P+](NC(C)(C)C)(NC(C)(C)C)c2ccccc2)cc1)(NC(C)(C)C)c1ccccc1
T/C (dose: 1.56 mg/kg/injection, schedule: Q04DX003 (ip), vehicle: saline): 109 % of control
T/C (dose: 3.13 mg/kg/injection, schedule: Q04DX003 (ip), vehicle: saline): 95 % of control

— PubChem BioAssay AID256 (DTP/NCI, 2004)
